EP4129319A1, “PORE-FORMING ANTIMICROBIAL PEPTIDES” (priority 2021, dated 2023)
Ends that are not written are not given here.

Tests used:
Calcein leakage assay = format: biochemical; settings: calcein leakage, POPC:POPG (1:1 mol/mol) LUVs
Method: Chemicals. […] (Prague, Czech Republic), and Caslo ApS (Kongens Lyngby, Denmark). […] The bacterial stock was stored at -80°C.
Calcein leakage assay. Pore-forming activity of the peptides was tested by their ability to leak the self-quenching fluorescent dye calcein entrapped within POPC:POPG (1:1 mol/mol) large unilamellar vesicles (LUVs). After mixing DiD to the lipid mixture (in the ratio 1:500 mol/mol), a thin lipid film was created by evaporating of the chloroform, traces of which were removed by desiccating overnight. The lipid film was then dissolved in calcein buffer, followed by vigorous vortexing. The lipid suspension was subsequently subjected to 10 freeze-thaw cycles. To obtain uniform LUVs, the sample was passed 50 times back and forth through an extruder stacked with 100 nm pore size polycarbonate membrane filter. Afterwards, the untrapped calcein was removed on a HiTrap Desalting Column (with Sephadex G-25 Superfine resin) by washing with PBS buffer. The concentration of the lipid suspension was then adjusted to 0.02 mM. The concentration of the peptide solution was 0.1 mM. The inventors monitored the peptide-induced release of calcein from LUVs by the increase in fluorescence intensity after adding increasing amounts of peptides to the LUVs under constant stirring at 25 °C. The investigated range of peptide/lipid molecular ratio was from 1:100 to 1:10. The excitation and emission wavelengths were set to 495 nm and 520 nm, respectively. Maximum fluorescence intensity was obtained by disrupting all the vesicles in the end by adding 10% Triton X-100. Experiments were performed in triplicates with independently prepared lipid vesicles.

[1] = PBS buffer
Method: After storing at -20 °C, the peptides were dissolved in phosphate-buffered saline (PBS). […] The pH of all the buffers was adjusted to physiological value 7.4.

## KKKKLKKILKKLFQFINQLDNQLQDIAQNA-NH2 [KDFA2i+7-npNH2]
Calcein leakage assay; peptide-to-lipid ratio 1:10 (mol/mol)
  Extent of leakage (in percentage) at increasing peptide-to-lipid ratio (mol/mol) 1:10: Aggregated peptides and no leakage
Calcein leakage assay; peptide-to-lipid ratio 1:20 (mol/mol)
  Extent of leakage (in percentage) at increasing peptide-to-lipid ratio (mol/mol) 1:20: Aggregated peptides and no leakage
Calcein leakage assay; peptide-to-lipid ratio 1:50 (mol/mol)
  Extent of leakage (in percentage) at increasing peptide-to-lipid ratio (mol/mol) 1:50: Aggregated peptides and no leakage
Calcein leakage assay; peptide-to-lipid ratio 1:100 (mol/mol)
  Extent of leakage (in percentage) at increasing peptide-to-lipid ratio (mol/mol) 1:100: Aggregated peptides and no leakage
[1]
  aggregation / solubilization problem (in words): peptide aggregation
